Experimental data as given in patent publication US20240415915A1, “TRADITIONAL CHINESE MEDICINE FERMENTED PREPARATION FOR PREVENTING AND TREATING GOUT, ITS PREPARATION METHOD AND APPLICATION” (priority 2023, published 2024).

Test system: mice with hyperuricemia
Assay: Effect on serum uric acid (UA) levels in mice with hyperuricemia
Format: in vivo
Details: 0.02 g/kg orally once a day, 7 days; hypoxanthine + potassium oxonate model; model group 768.30, blank 145.80
Text: 60 mice (each mouse with a weight of (20±2) g) are taken and randomly divided into 6 groups, with 10 mice in each group, denoted as a blank group, a model group, a benzbromarone group, a high dose traditional Chinese medicine fermented preparation group, a medium dose traditional Chinese medicine fermented preparation group, and a low dose traditional Chinese medicine fermented preparation group. After 5 days of adaptive breeding, except for the blank group (injected with an equal volume of physiological saline), the mice in other groups are injected intraperitoneally with 0.3 g/kg/mouse of hypoxanthine +0.05 g/kg/mouse of potassium oxonate (i.e., oxonic acid potassium salt) daily for model replication, for 7 consecutive days. At the same time, the mice in the benzbromarone group are administered orally at a dose of 0.02 g/kg/mouse once a day, the mice in the high, medium and low dose traditional Chinese medicine fermented preparation groups are administered orally at a dose of 2 mL/kg/mouse, 1 mL/kg/mouse, and 0.5 mL/kg/mouse once, respectively, while the mice in the blank group and the model group are given physiological saline (1 mL/kg) orally, for 7 consecutive days. After 7 days, tail vein blood is collected from the mice in all groups, and then centrifuged to separate […] to obtain serum, the serum is taken to measure serum UA levels.

## CCc1oc2ccccc2c1C(=O)c1cc(Br)c(O)c(Br)c1 [Benzbromarone, benzbromarone]
  Serum UA level: 302.30 µmol/L
